Assay: Pyrogenicity in rabbits
Format: in vivo
Conditions: rabbit, in vivo
Method: Rabbits (each group: three rabbits) were used. Test compounds dissolved in a physiological saline solution were each injected into ear vein of rabbits. The difference between maximum body temperature within three hours after the injection of test compound and the body temperature before the injection was regarded as rise in body temperature. The degree of pyrogenicity was evaluated according to the following criterion: […]

Row | SMILES | pyrogenicity compared with GMP3 -A
1 | CCCCCCCCCCCCCCCCCCNC(=O)C(CCCC(N)C(N)=O)NC(=O)CCC(NC(=O)C(C)NC(=O)C(C)OC1C(NC(C)=O)C(O)OC(CO)C1OC1OC(CO)C(O)C(O)C1NC(C)=O)C(N)=O.Cl [Example 45, β-N-acetylglucosaminyl-(1→4)-N-acetylmuramyl-L-alanyl-D-isoglutaminyl-(L)-meso-2,6-diaminopimelic acid-(D)-amide-(L)-octadecylamide hydrochloride] | by far the less than that of GMP3 -A
2 | CC(=O)NC(CCCC(NC(=O)CCC(NC(=O)C(C)NC(=O)C(C)OC1C(NC(C)=O)C(O)OC(CO)C1OC1OC(CO)C(O)C(O)C1NC(C)=O)C(N)=O)C(N)=O)C(N)=O [Example 36, β-N-acetylglucosaminyl-(1→4)-N-acetylmuramyl-L-alanyl-D-isoglutaminyl-(L)-acetyl-(D)-meso-2,6-diaminopimelic acid-(D),(L)-diamide] | by far the less than that of GMP3 -A
3 | CCCCCCCCCCNC(=O)C(CCCC(NC(C)=O)C(N)=O)NC(=O)CCC(NC(=O)C(C)NC(=O)C(C)OC1C(NC(C)=O)C(O)OC(CO)C1OC1OC(CO)C(O)C(O)C1NC(C)=O)C(N)=O (stereo not drawn) [Example 37] | by far the less than that of GMP3 -A
